Values of other authors in patent US20150239832A1 (Neuro Pro Therapeutics, Inc., priority 2012, published 2015).

Columns and labels:
[1] = system: patients with medically intractable seizures; conditions: intravenously administered, intraoperative
[2] = system: rat models of anxiety; conditions: Krystal et al., PLoS ONE 2012
[3] = system: rats; conditions: whole animal studies in rats
[4] = system: primate cortex
[5] = system: NKCC1 over KCC2

Compound	effect on interictal spiking and stimulation-evoked afterdischarges of the neocortex [1]	effect on conditioned anxiety [2]	effect on kainic acid status [3]	potency in blocking epileptiform activity (focal bicuculline or 4-AP) and stimulation-evoked afterdischarges [4]	affinity for NKCC1 relative to KCC2 [5]
NS(=O)(=O)c1cc(C(=O)O)c(NCc2ccco2)cc1Cl [furosemide]	blocked spontaneously occurring interictal spiking and stimulation-evoked afterdischarges	significantly reduce conditioned anxiety	–	–	–
CCCCNc1cc(C(=O)O)cc(S(N)(=O)=O)c1Oc1ccccc1 [bumetanide]	–	significantly reduce conditioned anxiety	more potent than furosemide	more potent than furosemide	significantly greater affinity for NKCC1 over KCC2
